In one data set the test system is rat stomach. The note with it: i.v., as maleate; cited from earlier work.
A further data set deals with T1, histamine H2 receptors (Rattus norvegicus, UniProt P25102).
T1 construct: from tissue; host or cells: stomach of the atropinized rat, in vivo (endogenous receptor)
Nature of the data set: antisecretory activity: antagonism of the gastric acid hypersecretion induced by histamine in the atropinized rat (Ghosh and Schild, modified according to Black et al.). The data set is classed as in vivo. The note with it: for ED50: read-out: DI50 (ID50: dose which inhibits by 50% the gastric hypersecretion induced by histamine). On the procedure:
According to this test, a gastric acid hypersecretion is induced by intravenous infusion of a sub-maximal dose of histamine equivalent to 15 mcmol/kg/hour and the gastric secretion is measured by perfusion of a physiological solution at a constant speed in the stomach of the animal.
Such a ID50 represents the index of the gastric H2 -blocking action.

Data set [1] can be described thus: acute toxicity by intraperitoneal route in the mouse. It is filed as in vivo. The note with it: in vivo, ip. The source says: (§1) With respect of their degree of activity, the compounds of the present invention are poorly toxic.
In a further data set the test system is mouse. Described as above. The data set is classed as in vivo. The note with it: 375 mg/kg.
Excerpt: as §1

Where [2] appears, read: atropinized rat, intravenous route, single administration, histamine i.v. infusion 15 mcmol/kg/hour.

Where a name gives a salt, the structure may show the parent alone. Read-outs that look alike come from different tables or passages of the source. A value given as a limit tells only on which side of the number the result lay.

T1 sequence (P25102 whole entry): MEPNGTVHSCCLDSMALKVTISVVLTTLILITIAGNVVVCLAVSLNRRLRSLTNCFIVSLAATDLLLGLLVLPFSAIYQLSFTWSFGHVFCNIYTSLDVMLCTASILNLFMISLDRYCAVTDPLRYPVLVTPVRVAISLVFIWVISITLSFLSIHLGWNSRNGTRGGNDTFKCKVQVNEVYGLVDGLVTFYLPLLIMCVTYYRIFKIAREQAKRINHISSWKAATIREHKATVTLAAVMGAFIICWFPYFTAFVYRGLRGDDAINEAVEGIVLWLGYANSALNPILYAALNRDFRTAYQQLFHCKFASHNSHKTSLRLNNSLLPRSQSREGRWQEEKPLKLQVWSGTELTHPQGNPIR

`N=C(N)Nc1nc(CSCCNC=O)cs1` [2-guanidino-4-[(2-formamido)ethylthiomethyl]thiazol]: the ED50 with rat stomach is 0.25 mg/kg.
As to `CS(=O)(=O)Nc1ccc(C(=O)NCCSCc2csc(NC(=N)N)n2)cc1` [Compound A, 4-methanesulfonamido-N-[2-(2-guanidinothiazol-4-ylmethylthio)ethyl]benzamide, reference compound], the ED50 on histamine H2 receptors (setting [2]) came out at 1.66 µmol/kg. The “Relative potency (cimetidine = 1)” value on histamine H2 receptors (atropinized rat, i.v.) was determined as 0.57.
Regarding `N=C(N)Nc1nc(CSCCNC(=O)c2cccnc2)cs1` [Compound B, N-[2-(2-guanidinothiazol-4-ylmethylthio)ethyl]nicotinamide, reference compound], the ED50 at histamine H2 receptors (setting [2]) is 0.28 µmol/kg. On histamine H2 receptors (atropinized rat, i.v.), the “Relative potency (cimetidine = 1)” value is on record as 7.39. Further, the LD50 in data set [1] was 342 µmol/kg.
Turning to `CNC(=C[N+](=O)[O-])NCCSCc1ccc(CN(C)C)o1` [Ranitidine, N-[2-[[5-[(dimethylamino)methyl]furfuryl]thio]ethyl]-N'-methyl-2-nitro-1,1-ethenediamine, reference compound], at histamine H2 receptors (atropinized rat, i.v.), the “Relative potency (cimetidine = 1)” value came to 3.80.
For `CS(=O)(=O)Nc1cccc(C(=O)NCCSCc2csc(NC(=N)N)n2)c1.Cl` [SR 57938 A, 3-methanesulfonamido-N-[2-(2-guanidinothiazol-4-ylmethylthio)ethyl]benzamide hydrochloride], the “Relative potency (cimetidine = 1)” value on histamine H2 receptors (atropinized rat, i.v.) was 6.33. Besides, at histamine H2 receptors (comparison in words, from Table I, atropinized rat, i.v.), the “activity compared with reference compounds” value is “ten times more active than "Compound A"”. Also, the ED50 at histamine H2 receptors (rat, iv) was 0.15 µmol/kg.
As for `N=C(N)Nc1nc(CSCCNC(=O)c2ccc[n+]([O-])c2)cs1` [SR 57957 A, neutral fumarate of N-[2-(2-guanidinothiazol-4-ylmethylthio)ethyl]-3-pyridine carboxamide 1-oxide], the ED50 at histamine H2 receptors (setting [2]) is 0.1 µmol/kg. On histamine H2 receptors (atropinized rat, i.v.), the “Relative potency (cimetidine = 1)” value came to 9.5. The molecule further gave an LD50 in data set [1] of over 900 µmol/kg. For the same molecule, in the data set on mouse, the mortality result is recorded as “does not cause any mortality”.
Consider `N=C(N)Nc1nc(CSCCNC(=O)c2cccc(NS(=O)(=O)c3ccccc3)c2)cs1` [SR 57963 A, neutral fumarate of 3-benzenesulfonamido-N-[2-(2-guanidinothiazol-4-ylmethylthio)ethyl]benzamide], for which, at histamine H2 receptors (setting [2]), the ED50 worked out at 0.065 µmol/kg. For the same molecule, the “Relative potency (cimetidine = 1)” value on histamine H2 receptors (atropinized rat, i.v.) is given as 14.6.

As usually defined, the LD50 is the dose expected to kill half of the subjects tested. Higher therefore signals lower toxicity.

The values above are taken from patent US4501747A, “Certain amide derivatives of 2-guanidino-thiazoles and compositions containing same” (Sanofi, priority 1982, dated 1985).
